Experiments:
HepG2 [1] = assay: Antiproliferative activity against human HepG2 cells after 48 hrs by MTT assay; format: functional, cell-based; conditions: HepG2, 48 h
MCF7 [2] = assay: Antiproliferative activity against human MCF7 cells after 48 hrs by MTT assay; format: functional, cell-based; conditions: MCF7, 48 h
HepG2 [3] = assay: Induction of apoptosis in human HepG2 cells assessed as live cells at 0.5 uM after 48 hrs by Annexin-V FITC/propidium iodide staining based flow cytometry (reference value: 86.49%); format: functional
HepG2 [4] = assay: Induction of apoptosis in human HepG2 cells assessed as early apoptotic cells at 0.5 uM after 48 hrs by Annexin-V FITC/propidium iodide staining based flow cytometry (reference value: 6.62%); format: functional
HepG2 [5] = assay: Induction of apoptosis in human HepG2 cells assessed as late apoptotic cells at 0.5 uM after 48 hrs by Annexin-V FITC/propidium iodide staining based flow cytometry (reference value: 5.53%); format: functional
HepG2 [6] = assay: Induction of apoptosis in human HepG2 cells assessed as necrotic cells at 0.5 uM after 48 hrs by Annexin-V FITC/propidium iodide staining based flow cytometry (reference value: 1.36%); format: functional
HepG2 [7] = assay: Potency index, ratio of sunitinib IC50 to compound IC50 for human HepG2 cells; format: functional
MCF7 [8] = assay: Potency index, ratio of sunitinib IC50 to compound IC50 for human MCF7 cells; format: functional

| Compound | IC50 (HepG2 [1]) [µM] | IC50 (MCF7 [2]) [µM] | other results |
| --- | --- | --- | --- |
| COc1ccc2cc1Oc1ccc(cc1)C[C@H]1c3cc(c(OC)cc3CCN1C)Oc1c(OC(=O)c3ccc(Cl)cc3)c(OC)cc3c1[C@H](C2)N(C)CC3 | 2.12 | 3.79 | – |
| COc1ccc2cc1Oc1ccc(cc1)C[C@H]1c3cc(c(OC)cc3CCN1C)Oc1c(OC(=O)c3ccccc3)c(OC)cc3c1[C@H](C2)N(C)CC3 | 3.69 | 6.34 | – |
| COc1ccc2cc1Oc1ccc(cc1)C[C@H]1c3cc(c(OC)cc3CC[N+]1(C)CC(=O)[O-])Oc1c(OC)c(OC)cc3c1[C@H](C2)N(C)CC3 (stereo not given in full) | 9.98 | 11.6 | – |
| COc1ccc2cc1Oc1ccc(cc1)C[C@H]1c3cc(c(OC)cc3CCN1C)Oc1c(OC(=O)c3cccc([N+](=O)[O-])c3)c(OC)cc3c1[C@H](C2)N(C)CC3 | 1.69 | 1.99 | – |
| COc1ccc2cc1Oc1ccc(cc1)C[C@H]1c3cc(c(OC)cc3CCN1C)Oc1c(OC(=O)c3ccccc3Cl)c(OC)cc3c1[C@H](C2)N(C)CC3 | 1.32 | 3.51 | – |
| CCOc1ccc(C(=O)Oc2c(OC)cc3c4c2Oc2cc5c(cc2OC)CCN(C)[C@H]5Cc2ccc(cc2)Oc2cc(ccc2OC)C[C@@H]4N(C)CC3)cc1 | 0.65 | 4.54 | – |
| COc1ccc2cc1Oc1ccc(cc1)C[C@H]1c3cc(c(OC)cc3CC[N+]1(C)CC(=O)[O-])Oc1c(OC)c(OC)cc3c1[C@H](C2)[N+](C)(CC(=O)[O-])CC3 (stereo not given in full) | 10 | 14.6 | – |
| COc1ccc2cc1Oc1ccc(cc1)C[C@H]1c3cc(c(OC)cc3CCN1C)Oc1c(OC(C)=O)c(OC)cc3c1[C@H](C2)N(C)CC3 | 5.24 | 6.99 | – |
| COc1ccc2cc1Oc1ccc(cc1)C[C@H]1c3cc(c(OC)cc3CCN1C)Oc1c(OC(=O)c3ccccc3OC(C)=O)c(OC)cc3c1[C@H](C2)N(C)CC3 | 1.78 | 5.12 | – |
| CCCCOc1c(OC)cc2c3c1Oc1cc4c(cc1OC)CCN(C)[C@H]4Cc1ccc(cc1)Oc1cc(ccc1OC)C[C@@H]3N(C)CC2 | 3.79 | 7.34 | – |
| COc1ccc2cc1Oc1ccc(cc1)C[C@H]1c3cc(c(OC)cc3CCN1C)Oc1c(OC(C)C)c(OC)cc3c1[C@H](C2)N(C)CC3 | 4.92 | 7.98 | – |
| CCOC(=O)C(C)[N+]1(C)CCc2cc(OC)c3cc2[C@@H]1Cc1ccc(cc1)Oc1cc(ccc1OC)C[C@H]1c2c(cc(OC)c(OC)c2O3)CCN1C (stereo not given in full) | 13.1 | 10.1 | – |
| COc1ccc2cc1Oc1ccc(cc1)C[C@H]1c3cc(c(OC)cc3CCN1C)Oc1c(OC(=O)c3cccnc3)c(OC)cc3c1[C@H](C2)N(C)CC3 | 1.98 | 4.17 | – |
| CCC(Br)C(=O)Oc1c(OC)cc2c3c1Oc1cc4c(cc1OC)CCN(C)[C@H]4Cc1ccc(cc1)Oc1cc(ccc1OC)C[C@@H]3N(C)CC2 (stereo not given in full) | 3.88 | 7.02 | – |
| COc1ccc2cc1Oc1ccc(cc1)C[C@H]1c3cc(c(OC)cc3CCN1C)Oc1c(OC(=O)c3cccc(Cl)c3)c(OC)cc3c1[C@H](C2)N(C)CC3 | 1.99 | 2.98 | – |
| COc1ccc2cc1Oc1ccc(cc1)C[C@H]1c3cc(c(OC)cc3CCN1C)Oc1c(OC(=O)c3ccccc3[N+](=O)[O-])c(OC)cc3c1[C@H](C2)N(C)CC3 | 2.95 | 2.57 | – |
| CCOc1c(OC)cc2c3c1Oc1cc4c(cc1OC)CCN(C)[C@H]4Cc1ccc(cc1)Oc1cc(ccc1OC)C[C@@H]3N(C)CC2 | 5.52 | 8.55 | – |
| COc1ccc2cc1Oc1ccc(cc1)C[C@H]1c3cc(c(OC)cc3CCN1C)Oc1c(OC(=O)CCl)c(OC)cc3c1[C@H](C2)N(C)CC3 | 4.12 | 7.13 | – |
| COc1ccc2cc1Oc1ccc(cc1)C[C@H]1c3cc(c(OC)cc3CCN1C)Oc1c(OC(=O)c3ccc([N+](=O)[O-])cc3)c(OC)cc3c1[C@H](C2)N(C)CC3 | 2.11 | 2.99 | – |
| COc1ccc2cc1Oc1ccc(cc1)C[C@H]1c3cc(c(OC)cc3CCN1C)Oc1c(OC(=O)c3cccnc3Cl)c(OC)cc3c1[C@H](C2)N(C)CC3 | 2.79 | 4.01 | – |
| C/C=C/C=C/C(=O)Oc1c(OC)cc2c3c1Oc1cc4c(cc1OC)CCN(C)[C@H]4Cc1ccc(cc1)Oc1cc(ccc1OC)C[C@@H]3N(C)CC2 | 4 | 6.56 | – |
| COc1ccc2cc1Oc1ccc(cc1)C[C@H]1c3cc(c(OC)cc3CCN1C)Oc1c(OCc3ccccc3)c(OC)cc3c1[C@H](C2)N(C)CC3 | 0.55 | 3.45 | Activity (HepG2 [3]): 55.6%; Activity (HepG2 [4]): 10.47%; Activity (HepG2 [5]): 28.16%; Activity (HepG2 [6]): 5.77%; Ratio IC50 (HepG2 [7]): 29.2; Ratio IC50 (MCF7 [8]): 7.37 |
| CCOC(=O)C(CC)[N+]1(C)CCc2cc(OC)c3cc2[C@@H]1Cc1ccc(cc1)Oc1cc(ccc1OC)C[C@H]1c2c(cc(OC)c(OC)c2O3)CCN1C (stereo not given in full) | 15.7 | 16.6 | – |
| COc1ccc2cc1Oc1ccc(cc1)C[C@H]1c3cc(c(OC)cc3CCN1C)Oc1c(OC(=O)/C=C/c3ccccc3)c(OC)cc3c1[C@H](C2)N(C)CC3 | 3.59 | 6.12 | – |
| COc1ccc2cc1Oc1ccc(cc1)C[C@H]1c3cc(c(OC)cc3CC[N+]1(C)CCO)Oc1c(OC)c(OC)cc3c1[C@H](C2)[N+](C)(CCO)CC3 (stereo not given in full) | 9.67 | 9.32 | – |
| COc1ccc2cc1Oc1ccc(cc1)C[C@H]1c3cc(c(OC)cc3CCN1C)Oc1c(OC)c(OC)cc3c1[C@H](C2)N(C)CC3 [FANCHININ] | 6.82 | 8.62 | – |
| COc1ccc2cc1Oc1ccc(cc1)C[C@H]1c3cc(c(OC)cc3CCN1C)Oc1c(O)c(OC)cc3c1[C@H](C2)N(C)CC3 [FANGCHINOLINE] | 9.08 | 10.1 | – |

— ChEMBL document CHEMBL4041545, “Design, synthesis and biological activities of tetrandrine and fangchinoline derivatives as antitumer agents” (Bioorg Med Chem Lett, 2017)
